These results are taken from patent publication US6110944A, “LTA4, hydrolase inhibitors” (G. D. Searle & Co., priority 1997, dated 2000).

For orientation: IC50 means the concentration that inhibits the measured activity by half.

Assay [1] concerns granulocyte. To be noted: R. Lewis, et al., 1990; cited from earlier work.
Assay [2] has as its system LTA4 hydrolase. Particulars: background statement, no value; cited from earlier work.
Assay [3] concerns the target T1, recombinant human LTA hydrolase (rhLTAH) (Homo sapiens, UniProt P09960).
T1 construct: made in house; host or cells: Spodoptera frugiperda Sf-9 cells (baculovirus AcNPV)
T1 sequence (P09960 1-611): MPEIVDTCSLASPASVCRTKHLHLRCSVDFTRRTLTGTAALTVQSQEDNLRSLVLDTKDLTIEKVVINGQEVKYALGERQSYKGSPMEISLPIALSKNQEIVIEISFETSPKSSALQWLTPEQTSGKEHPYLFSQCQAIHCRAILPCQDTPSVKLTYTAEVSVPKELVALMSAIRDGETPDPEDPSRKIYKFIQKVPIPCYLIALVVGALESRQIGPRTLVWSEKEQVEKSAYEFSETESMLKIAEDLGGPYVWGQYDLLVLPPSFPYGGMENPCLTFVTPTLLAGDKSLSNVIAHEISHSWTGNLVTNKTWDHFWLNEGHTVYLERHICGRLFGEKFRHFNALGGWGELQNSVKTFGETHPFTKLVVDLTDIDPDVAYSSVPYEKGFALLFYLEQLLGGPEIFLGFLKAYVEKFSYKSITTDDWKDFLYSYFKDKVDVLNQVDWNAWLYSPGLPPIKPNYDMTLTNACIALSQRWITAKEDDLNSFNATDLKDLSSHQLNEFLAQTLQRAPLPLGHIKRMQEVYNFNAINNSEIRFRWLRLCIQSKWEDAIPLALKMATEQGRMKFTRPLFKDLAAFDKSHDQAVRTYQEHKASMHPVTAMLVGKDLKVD
The experiment in a line: Recombinant Human LTA Hydrolase Assay for LTA Hydrolase Inhibitor Activity. To be noted: 250 ng rhLTA4H, 10 min preincubation, room temperature, pH 7.4, 10 min reaction, immunoassay; read-out: Recombinant Human LTA4 Hydrolase Assay IC50 LTA4. It is filed as biochemical. How it is done: Recombinant Human LTA Hydrolase Assay for LTA Hydrolase Inhibitor Activity
Compounds of the present invention were tested for LTA hydrolase inhibitor activity against recombinant human LTA hydrolase (rhLTAH). Recombinant human LTA hydrolase-encoding vectors were prepared and used to express rhLTAH essentially as described by J. Gierse, et al., Protein Expression and Purification, 4, 358-366 (1993). Briefly, LTA hydrolase encoding DNA was amplified by polymerase chain reaction using a pair of oligonucleotide primers based on the nucleotide sequence from the 5'-end, and the complement of the 3'-end, of the coding region of the LTA hydrolase gene, the nucleotide sequence of which gene is known. (See, C. Funk, et al., Proc. Natl. Acad. Sci. U.S.A. 84, 6677-6681 (1987)). A λgt11 human placental cDNA library (Clonetech, Palo Alto, Calif.) provided the nucleic acid template. […] The amplified 1.9 kb DNA was isolated and cloned into the genomic baculovirus, Autographa californica nuclear polyderosis virus (AcNPC) DNA, and the baculovirus expression vector was transfected into Spodoptera frugiperda Sf-9 cells employing the calcium phosphate co-precipitation method (see, M. Summers, et al., Tex. Agric. Exp. Stn. Bull. 1555, 1-57 (1987). Recombinant LTA4 hydrolase enzyme was purified from the transfected Sf-9 cells essentially as described by J. Gierse, et al., supra.
One or more predetermined amounts of a compound of the invention were incubated in assay buffer (0.1 M potassium phosphate, 5 mg/ml fatty acid free BSA, 10% DMSO, pH 7.4) for 10 minutes at room temperature with 250 ng of recombinant hLTA4 H to allow binding, if any, between the enzyme and inhibitor. The stock enzyme solution was 1 mg/m. LTA4 hydrolase, 50 mM Tris, pH 8.0, 150 mM NaCl, 2.5 mM beta-mercaptoethanol, 50% glycerol. The specific activity of the enzyme was about 650 nMoles/min/mg. LTA4 (i.e., substrate) was prepared from the methyl ester of LTA, (Biomol, Inc., Plymouth Meeting, Pa.) by treating the methyl ester with 30 molar equivalents of LiOH at room temperature for 18 hours. The LTA4 substrate in its free acid form was kept frozen at -80° C. until needed. LTA, (free acid) was thawed and diluted in assay buffer (minus DMSO) to a concentration of 350 ng/ml and 25 μl (8 ng) of LTA4 substrate was added to the reaction mixture (total volume of reaction mixture=200 μl at time zero. Each reaction was carried out at room temperature for 10 minutes. The reaction was stopped by diluting 25 μl of the reaction mixture with 500 μl of the assay buffer without DMSO. […] was quantified in the diluted sample by a commercially available enzyme-linked immunoassay [Caymen Chemical Col. Ann Arbor, Mich.] using the method recommended in the manufacturer's instructions and compared to the amount of […] produced in a negative control (i.e., essentially identical conditions except without addition of an inhibitor compound). The IC50 was routinely calculated from the data produced.

The subject of assay [4] is LTB4 production in calcium ionophore-stimulated human blood. The experiment in a line: LTB4 Production by Calcium Ionophore Stimulated Human Blood (HWB). It is filed as cell-based. To be noted: human blood diluted 1:4, 15 min preincubation at 37° C., ionophore 20 mcg/ml, 10 min; read-out: Inhibition of Calcium Ionophore-induced LTB4 Production in Human Blood IC50 HWB. Here is the method:
LTB4 and Thromboxane Production by Calcium Ionophore Stimulated Human Blood for LTB4 Hydrolase Inhibitor Activity
Human blood, collected in heparin-containing Vacutainer tubes, was diluted 1:4 with RPMI-1640 media and 200 μl of the diluted blood was added into each of a 96-well microtiter plate. One or more concentrations of the leukotriene A4 hydrolase inhibitor compounds being tested were prepared (diluted in DMSO) and 2 μl added and gently mixed with the diluted whole blood. After incubating for 15 minutes at 37° C. in a humidified incubator, calcium ionophore […] (Sigma Chemical Co., St. Louis, Mo.) was added to a final concentration of 20 mcg/ml and the incubation continued under the same conditions for an additional 10 minutes to allow LTB4 formation. The reaction was terminated by centrifugation (833 g, 10 minutes at 4° C.) and supernatant were analyzed for LTB4 and thromboxane by commercially available enzyme-linked immunoassays (Caymen Chemical Co., Ann Arbor, Mich.) according to the manufacturer's instructions. The IC50 of each test compound was determined from the amount of inhibition of LTB4 production as compared to an essentially identical assay in which no inhibitor compound was present.

Assay [5] relates to LTB4 production in calcium ionophore-stimulated mouse blood. The experiment in a line: Murine Ex Vivo LTB4 Inhibition, calcium ionophore stimulated mouse blood after oral gavage. Type of assay: in vivo. To be noted: blood collected 1 hour after administration, ionophore A23187 20 mcg/ml, read-out: Murine Ex Vivo LTB4 Inhibition % I LTB4 at 1 hour after administration of 10 mg/kg. How it is done: Ex Vivo LTB4 and Thromboxane Production by Calcium Ionophore Stimulated Mouse Blood for LTB4 Hydrolase Inhibitor Activity
Leukotriene A4 hydrolase inhibitor compounds of the present invention were diluted to a predetermined concentration in phosphate buffered saline containing 2%; DMSO and 1% Tween 80. The compounds were administered by oral gavage to adult male outbred mice weighing approximately 20-30 gm at a dose of 10 mg/kg body weight. (Compounds given at a dose of 50 mg/kg body weight are designated in following Table by the symbol, *) Sixty (60) minutes after administration of an LTA4 inhibitor compound of the invention, blood was collected (into heparin-containing tubes) from the retroorbital sinus. […] The mixture was incubated for 10 minutes at 37° C. in a humidified incubator. The reaction was terminated by centrifugation (833 g. 10 minutes at 4° C.). Supernatant were analyzed for LTB4 and thromboxane by commercially available enzyme-linked immunoassays [Caymen Chemical Co., Ann Arbor, Mich.] in accordance with the manufacturer's instructions. The percent inhibition was determined by comparison to animals treated identically except that the solution administered by oral gavage was devoid of inhibitor compound.

Structures can show the parent of a compound that is named as a salt.

With `CCCCC/C=C\C[C@@H](O)/C=C/C=C/C=C\[C@@H](O)CCCC(=O)O` [LTB4], in assay [1], the “granulocyte agonist activity inducing chemotaxis, aggregation, degranulation, adherence and priming” value is given as “potent granulocyte agonist”.
For `CC(C)C[C@H](NC(=O)[C@@H](O)[C@H](N)Cc1ccccc1)C(=O)O` [bestatin], the “LTA4 hydrolase inhibitory activity” value in assay [2] is recorded as “exhibit LTA4 hydrolase inhibitory activity”.
Take `N=C(COc1ccc(Cc2ccccc2)cc1)N1CCCCC1` [Example 4, α[[4-(phenylmethyl)phenoxy)methyl]-1-peperidinemethanimine, monohydrochloride]: the IC50 in assay [3] came to 4.3 nM; in assay [4], 85 nM. The inhibition at 10 mg/kg in assay [5] is 30%.
On the same counts, the results for `NC(COc1ccc(Cc2ccccc2)cc1)=NO` [Example 12, N'-hydroxy-2-[4-(phenylmethyl)phenoxy]ethanimidamine] are above 100000 nM, 17900 nM and 63%.
The like results for `c1ccc(Cc2ccc(OCCCC3=NCCN3)cc2)cc1` [Example 17] were, in that order, 64 nM, 640 nM and 28%.
On the same counts, the results for `c1ccc(Cc2ccc(OCC3=NC4CCCCC4N3)cc2)cc1` (stereo not shown) [Example 13] are 200 nM, 190 nM and 71%.
In the case of `CCOC(=O)CCNC(=N)COc1ccc(Cc2ccccc2)cc1` [Example 6, ethyl 3-[[1-imino-2-[4-(phenylmethyl)phenoxy]ethyl]amino]propanoate, monohydrochloride], the IC50 in assay [3] stood at 23 nM; in assay [4] it was 200 nM. In addition, the inhibition at 10 mg/kg in assay [5] was 54%.
In the case of `c1ccc(Cc2ccc(OCC3=NCCN3)cc2)cc1` [Example 7, 4,5-dihydro-2-[[4-(phenylmethyl)phenoxy]methyl]-1H-imidazole], the concentration for half-maximal inhibition (IC50) in assay [3] worked out at 70 nM; in assay [4] it was 220 nM. The inhibition at 10 mg/kg in assay [5] came to 33%.
On to `C[C@H](CS)C(=O)N1CCC[C@H]1C(=O)O` [captopril], for which the “LTA4 hydrolase inhibitory activity” value in assay [2] is “exhibit LTA4 hydrolase inhibitory activity”.
With `N=C(COc1ccc(Cc2ccccc2)cc1)NC1C2CC3CC(C2)CC1C3` (stereo not shown) [Example 11, 2-[4-(phenylmethyl)phenoxy]-N-(tricyclo[3.3.1.1 3,7]decan-2-yl)ethanimidamide, monohydrate], the IC50 in assay [3] amounted to 7800 nM.
With `N=C(COc1ccc(Cc2ccccc2)cc1)N1CCC(C(N)=O)CC1` [Example 9, 1-[1-imino-2-[4-(phenylmethyl)phenoxy]ethyl]-4-piperidinecarboxamide], the values for the IC50 in assay [3] and in assay [4] were 17 nM and 77 nM, respectively. Moreover, the inhibition at 10 mg/kg in assay [5] amounted to 30%.
Take `COC(=O)CCN1CCN=C1COc1ccc(Cc2ccccc2)cc1` [Example 8]: the IC50 in assay [3] amounted to 1170 nM; in assay [4] it was 550 nM. The inhibition at 10 mg/kg in assay [5] came out at 68%.
As for `N=C(COc1ccc(Cc2ccccc2)cc1)N1CCCC1` [Example 3, α[[4-(phenylmethyl)phenoxy)methyl]-1-pyrrolidinemethanimine, monohydrochloride], the IC50 in assay [3] was found to be 4 nM; in assay [4] it was 53 nM. Moreover, in assay [5], the inhibition at 10 mg/kg came to 46%.
The like results for `N=C(CCCOc1ccc(Cc2ccccc2)cc1)N1CCCCC1` [Example 16, α-[3-[4-(phenylmethyl)phenoxy)propyl]-1-peperidinemethanimine, monohydrochloride] were, in that order, 53 nM, 640 nM and 60%.
In the case of `N=C(N)COc1ccc(Cc2ccccc2)cc1` [Example 10, 1-imino-2-[4-(phenylmethyl)phenoxy]ethanamine], the IC50 in assay [3] amounted to 89 nM; in assay [4], 480 nM. Further, the inhibition at 10 mg/kg in assay [5] worked out at 0%.
As for `CCOC(=O)C1CCN(C(=N)COc2ccc(Cc3ccccc3)cc2)CC1` [Example 5, ethyl 1-[1-imino-2-[4-(phenylmethyl)phenoxy]ethyl]-4-piperidinecarboxylate,monohydrochloride], the IC50 was found to be 1.3 nM in assay [3] and 71 nM in assay [4]. Also, the inhibition at 10 mg/kg in assay [5] worked out at 62%.
